{"source": "patent US6066310A", "about": "“Diagnostic and therapeutic method for tumor using radiolabeled avidin” (Nihon Medi-Physics Co., Ltd., priority 1997, dated 2000)", "settings": "2 hours after biotin, LS180 xenografted mice", "method": "LS 180-tumor xenografted mice received injection with 300 μg unlabeled avidin and 1-24 hours later injection with 0.3 μg In-111 labeled biotin. […] After 2 hours from the injection of biotin, 4-5 mice per group were sacrificed and measured for distribution of radioactivity.", "key": {"[1]": {"settings": "biotin 1 hr after pre-targeting of avidin"}, "[2]": {"settings": "biotin 4 hr after pre-targeting of avidin"}, "[3]": {"settings": "biotin 8 hr after pre-targeting of avidin"}, "[4]": {"settings": "biotin 24 hr after pre-targeting of avidin"}, "[5]": {"settings": "without pre-targeting of avidin"}}, "note": "Like-named read-outs stand apart in the source and are kept apart here.", "data": [{"molecule": "O=C([O-])CN(CCN(CC(=O)[O-])CC(=O)NC(CCCCNC(=O)CCCCC1SCC2NC(=O)NC21)C(=O)O)CCN(CC(=O)[O-])CC(=O)NC(CCCCNC(=O)CCCCC1SCC2NC(=O)NC21)C(=O)O.[111In+3]", "note": "(stereo not drawn) [radiolabeled biotin]", "values": [{"measurement": "Tumor/Blood ratio of radioactivity", "setting": "[1]", "value": "160.3 ± 26.9"}, {"measurement": "Tumor/Bone ratio of radioactivity", "setting": "[1]", "value": "60.7 ± 13.7"}, {"measurement": "Tumor/Kidney ratio of radioactivity", "setting": "[1]", "value": "3.48 ± 0.94"}, {"measurement": "Tumor/Liver ratio of radioactivity", "setting": "[1]", "value": "4.19 ± 1.45"}, {"measurement": "Tumor/Spleen ratio of radioactivity", "setting": "[1]", "value": "5.14 ± 2.58"}, {"measurement": "radioactivity per 1 g of organ: Blood", "setting": "[1]", "value": "0.38 ± 0.08"}, {"measurement": "radioactivity per 1 g of organ: Bone", "setting": "[1]", "value": "0.99 ± 0.08"}, {"measurement": "radioactivity per 1 g of organ: Intestine", "setting": "[1]", "value": "1.03 ± 0.30"}, {"measurement": "radioactivity per 1 g of organ: Kidney", "setting": "[1]", "value": "17.44 ± 2.16"}, {"measurement": "radioactivity per 1 g of organ: Liver", "setting": "[1]", "value": "14.77 ± 2.84"}, {"measurement": "radioactivity per 1 g of organ: Lung", "setting": "[1]", "value": "1.07 ± 0.91"}, {"measurement": "radioactivity per 1 g of organ: Muscle", "setting": "[1]", "value": "0.10 ± 0.06"}, {"measurement": "radioactivity per 1 g of organ: Spleen", "setting": "[1]", "value": "12.85 ± 4.02"}, {"measurement": "radioactivity per 1 g of organ: Stomach", "setting": "[1]", "value": "3.24 ± 0.63"}, {"measurement": "radioactivity per 1 g of organ: Tumor", "setting": "[1]", "value": "59.28 ± 9.89"}, {"measurement": "Tumor/Blood ratio of radioactivity", "setting": "[2]", "value": "159.0 ± 50.9"}, {"measurement": "Tumor/Bone ratio of radioactivity", "setting": "[2]", "value": "107.3 ± 79.1"}, {"measurement": "Tumor/Kidney ratio of radioactivity", "setting": "[2]", "value": "12.26 ± 2.75"}, {"measurement": "Tumor/Liver ratio of radioactivity", "setting": "[2]", "value": "20.89 ± 5.43"}, {"measurement": "Tumor/Spleen ratio of radioactivity", "setting": "[2]", "value": "22.03 ± 9.18"}, {"measurement": "radioactivity per 1 g of organ: Blood", "setting": "[2]", "value": "0.25 ± 0.03"}, {"measurement": "radioactivity per 1 g of organ: Bone", "setting": "[2]", "value": "0.60 ± 0.45"}, {"measurement": "radioactivity per 1 g of organ: Intestine", "setting": "[2]", "value": "0.27 ± 0.06"}, {"measurement": "radioactivity per 1 g of organ: Kidney", "setting": "[2]", "value": "3.30 ± 0.94"}, {"measurement": "radioactivity per 1 g of organ: Liver", "setting": "[2]", "value": "1.92 ± 0.58"}, {"measurement": "radioactivity per 1 g of organ: Lung", "setting": "[2]", "value": "0.32 ± 0.11"}, {"measurement": "radioactivity per 1 g of organ: Muscle", "setting": "[2]", "value": "0.32 ± 0.22"}, {"measurement": "radioactivity per 1 g of organ: Spleen", "setting": "[2]", "value": "2.14 ± 1.24"}, {"measurement": "radioactivity per 1 g of organ: Stomach", "setting": "[2]", "value": "1.08 ± 0.44"}, {"measurement": "radioactivity per 1 g of organ: Tumor", "setting": "[2]", "value": "39.31 ± 11.3"}, {"measurement": "Tumor/Blood ratio of radioactivity", "setting": "[3]", "value": "52.6 ± 23.9"}, {"measurement": "Tumor/Bone ratio of radioactivity", "setting": "[3]", "value": "59.22 ± 35.9"}, {"measurement": "Tumor/Kidney ratio of radioactivity", "setting": "[3]", "value": "7.18 ± 2.66"}, {"measurement": "Tumor/Liver ratio of radioactivity", "setting": "[3]", "value": "48.14 ± 20.2"}, {"measurement": "Tumor/Spleen ratio of radioactivity", "setting": "[3]", "value": "40.87 ± 15.0"}, {"measurement": "radioactivity per 1 g of organ: Blood", "setting": "[3]", "value": "0.20 ± 0.03"}, {"measurement": "radioactivity per 1 g of organ: Bone", "setting": "[3]", "value": "0.20 ± 0.07"}, {"measurement": "radioactivity per 1 g of organ: Intestine", "setting": "[3]", "value": "0.11 ± 0.02"}, {"measurement": "radioactivity per 1 g of organ: Kidney", "setting": "[3]", "value": "1.41 ± 0.29"}, {"measurement": "radioactivity per 1 g of organ: Liver", "setting": "[3]", "value": "0.21 ± 0.04"}, {"measurement": "radioactivity per 1 g of organ: Lung", "setting": "[3]", "value": "0.19 ± 0.10"}, {"measurement": "radioactivity per 1 g of organ: Muscle", "setting": "[3]", "value": "0.06 ± 0.03"}, {"measurement": "radioactivity per 1 g of organ: Spleen", "setting": "[3]", "value": "0.26 ± 0.13"}, {"measurement": "radioactivity per 1 g of organ: Stomach", "setting": "[3]", "value": "0.13 ± 0.09"}, {"measurement": "radioactivity per 1 g of organ: Tumor", "setting": "[3]", "value": "10.49 ± 5.16"}, {"measurement": "Tumor/Blood ratio of radioactivity", "setting": "[4]", "value": "9.72 ± 2.07"}, {"measurement": "Tumor/Bone ratio of radioactivity", "setting": "[4]", "value": "9.42 ± 2.29"}, {"measurement": "Tumor/Kidney ratio of radioactivity", "setting": "[4]", "value": "1.39 ± 0.40"}, {"measurement": "Tumor/Liver ratio of radioactivity", "setting": "[4]", "value": "11.20 ± 3.77"}, {"measurement": "Tumor/Spleen ratio of radioactivity", "setting": "[4]", "value": "14.75 ± 5.59"}, {"measurement": "radioactivity per 1 g of organ: Blood", "setting": "[4]", "value": "0.15 ± 0.07"}, {"measurement": "radioactivity per 1 g of organ: Bone", "setting": "[4]", "value": "0.17 ± 0.13"}, {"measurement": "radioactivity per 1 g of organ: Intestine", "setting": "[4]", "value": "1.18 ± 1.35"}, {"measurement": "radioactivity per 1 g of organ: Kidney", "setting": "[4]", "value": "1.01 ± 0.23"}, {"measurement": "radioactivity per 1 g of organ: Liver", "setting": "[4]", "value": "0.13 ± 0.02"}, {"measurement": "radioactivity per 1 g of organ: Lung", "setting": "[4]", "value": "0.13 ± 0.06"}, {"measurement": "radioactivity per 1 g of organ: Muscle", "setting": "[4]", "value": "0.12 ± 0.16"}, {"measurement": "radioactivity per 1 g of organ: Spleen", "setting": "[4]", "value": "0.10 ± 0.01"}, {"measurement": "radioactivity per 1 g of organ: Stomach", "setting": "[4]", "value": "1.49 ± 1.61"}, {"measurement": "radioactivity per 1 g of organ: Tumor", "setting": "[4]", "value": "1.45 ± 0.70"}, {"measurement": "Tumor/Blood ratio of radioactivity", "setting": "[5]", "value": "5.78 ± 2.44"}, {"measurement": "Tumor/Bone ratio of radioactivity", "setting": "[5]", "value": "5.97 ± 3.51"}, {"measurement": "Tumor/Kidney ratio of radioactivity", "setting": "[5]", "value": "0.55 ± 0.22"}, {"measurement": "Tumor/Liver ratio of radioactivity", "setting": "[5]", "value": "3.90 ± 1.32"}, {"measurement": "Tumor/Spleen ratio of radioactivity", "setting": "[5]", "value": "3.94 ± 1.79"}, {"measurement": "radioactivity per 1 g of organ: Blood", "setting": "[5]", "value": "0.12 ± 0.03"}, {"measurement": "radioactivity per 1 g of organ: Bone", "setting": "[5]", "value": "0.25 ± 0.34"}, {"measurement": "radioactivity per 1 g of organ: Intestine", "setting": "[5]", "value": "0.49 ± 0.46"}, {"measurement": "radioactivity per 1 g of organ: Kidney", "setting": "[5]", "value": "1.23 ± 0.21"}, {"measurement": "radioactivity per 1 g of organ: Liver", "setting": "[5]", "value": "0.17 ± 0.05"}, {"measurement": "radioactivity per 1 g of organ: Lung", "setting": "[5]", "value": "0.14 ± 0.05"}, {"measurement": "radioactivity per 1 g of organ: Muscle", "setting": "[5]", "value": "0.20 ± 0.27"}, {"measurement": "radioactivity per 1 g of organ: Spleen", "setting": "[5]", "value": "0.18 ± 0.05"}, {"measurement": "radioactivity per 1 g of organ: Stomach", "setting": "[5]", "value": "0.12 ± 0.03"}, {"measurement": "radioactivity per 1 g of organ: Tumor", "setting": "[5]", "value": "0.70 ± 0.35"}]}]}
